Experimental data taken from patent US11396497B2, “Proteasome inhibitors” (New Mexico Tech University Research Park Corporation, priority 2018, dated 2022).
Where two headings read alike, the source gives them in different places.

Experiments:
[1] = target: T1, β5 subunit of the 26S yeast proteasome (yCP) (Saccharomyces cerevisiae, UniProt P23724+P30656); assay: Protein-drug co-crystal structure; type: binding; conditions: X-ray crystallography
T1 construct: measured using 8 μg/mL of purified yCP or iCP
Procedure: The binding mode of compound 11a in the yeast proteasome was examined. The yeast proteasome (yCP) has high homology with mammalian proteasomes but is easier to crystallize. Compound 11a was incubated at a high concentration with active yCP, and the enzyme-inhibitor complex was analyzed using X-ray crystallography.
Compound 11a is positioned in a kinked β-sheet-like conformation that is stabilized by hydrogen bonding with Thr21 and Gly47. The PI is further stabilized by the hydrophobic interaction of P3, whereas P2 and P4 lack any direct interactions within the binding pocket. The PI prevents the regeneration of the Thr1 catalytic site by complexing the water molecule generated by the hydrolysis of the β-lactone. The water molecule is stabilized in the binding pocket by residues Thr1, Ser131, and the hydroxyl group of the hydrolyzed lactone. […] The biological effects of P2 and P4 can be attributed to the pharmacokinetics of the cystargolide scaffold instead of binding to the β5 subunit of the proteasome.

[2] = target: T2, yeast proteasome yβ1 subunit (Saccharomyces cerevisiae, UniProt P25043+P38624); assay: Subunit selectivity, purified yeast proteasome yβ1; type: biochemical; conditions: 8 μg/mL purified yCP; ± SD; read-out: yβ1 IC50
T2 construct: measured using 8 μg/mL of purified yCP or iCP
Procedure: (§1) The compounds were diluted with lysis buffer; 10 μL of the compound-containing solution was added to the test wells at ten times the final concentration. […] The results are reported as the average of at least 3 technical replicates of IC50 values for proteasome inhibition.
(§2) Values and standard deviations were calculated from an assay performed in biological triplicate.

RPMI 8226 cells = assay: MTT assay cytotoxicity RPMI 8226
Procedure: (§3) The cells were incubated at 37° C. in a humidified atmosphere with 5% CO2.
(§4) 100 μL of cells were added to each well of a 96 well microtiter plate at a concentration of 4×10^4 cells/mL and incubated overnight to allow proper adhesion. (RPMI 8226 cells were plated at 4×10^5 cells/mL). The cells were treated with the panel of test compounds at a series of concentrations, along with vehicle control DMSO and untreated cells as controls. After 48 h incubation, 20 μL of MTT reagent (3-(4,5-dimethylthiazol-2-yl)-2,5-diphenyltetrazolium bromide) in PBS (5 mg/mL) was added to each well of the plates. The plate was incubated for 2 h at 37° C. For adherent cell lines, the media was removed from each well of the plate and the resulting formazan crystals dissolved in 100 μL of DMSO. For RPMI 8226 cells, 200 ul of DMF/SDS mix (50% DMF. 10% w/v SDS pH<4) was used to solubilize the formazan crystals. Optical density (OD) at 490 nm was measured using a microplate reader. Cells treated with 1 μM phenyl arsine oxide (PAO) served as a positive cell-killing control. Technical replicates of these assays were performed in biological quadruplicate, and the three best values were used for analysis in order to eliminate outliers. Data presented are the average IC50 value calculated from at least 3 technical replicates with the corresponding standard deviation.

[3] = target: T3, immunoproteasome iβ5 subunit (Homo sapiens, UniProt P20618+P28062); assay: Subunit selectivity, purified immunoproteasome iβ5; type: biochemical; conditions: 8 μg/mL purified iCP; ± SD; read-out: iβ5 IC50
T3 construct: purchased Enzo Life Sciences
Procedure: as §1, §2

MDA-MB-231 cells = assay: MTT assay cytotoxicity MDA-MB-231
Procedure: as §3, §4

[4] = target: T4, yeast proteasome yβ5 subunit (Saccharomyces cerevisiae, UniProt P23724+P30656); assay: Subunit selectivity, purified yeast proteasome yβ5; type: biochemical; conditions: 8 μg/mL purified yCP; ± SD; read-out: yβ5 IC50
T4 construct: measured using 8 μg/mL of purified yCP or iCP
Procedure: as §1, §2

[5] = target: T5, yeast proteasome yβ2 subunit (Saccharomyces cerevisiae, UniProt P25043+P25451); assay: Subunit selectivity, purified yeast proteasome yβ2; type: biochemical; conditions: 8 μg/mL purified yCP; ± SD; read-out: yβ2 IC50
T5 construct: measured using 8 μg/mL of purified yCP or iCP
Procedure: as §1, §2

[6] = target: T6, chymotrypsin-like activity of the 26S proteasome (Homo sapiens, UniProt P28074); assay: Proteasome assay, chymotrypsin-like (ChT-L) activity, Suc-LLVY-AMC, Jurkat cell lysate; type: biochemical; conditions: ± S.D.
T6 construct: endogenous in cells; host or cells: Jurkat (ATCC TIB-152, E6-1 clone) cell lysate
T6 sequence (P28074 60-263): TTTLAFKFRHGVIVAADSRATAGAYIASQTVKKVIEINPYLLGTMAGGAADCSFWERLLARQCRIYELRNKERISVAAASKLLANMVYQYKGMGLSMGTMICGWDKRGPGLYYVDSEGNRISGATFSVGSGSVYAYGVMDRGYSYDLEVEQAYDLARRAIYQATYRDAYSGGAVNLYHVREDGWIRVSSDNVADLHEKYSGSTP
Procedure: The lysate was stored at −80° C. until the sample was used for the proteasome assay.
as §1

MCF7 cells = assay: MTT assay cytotoxicity MCF7
Procedure: as §3, §4

[7] = system: cancer cells (MCF7, MDA-MB-231, RPMI 8226); assay: MTT cytotoxicity, cell line not given
[8] = system: MCF-7 breast cancer cell line; assay: Drug deactivation by serum: cytotoxicity towards MCF-7 in FBS, NBS or human serum; type: cell-based; conditions: MCF-7 cytotoxicity
Procedure: The deactivation of compounds was evaluated by testing the toxicity of compounds 8 and 12a in three different types of serums (i.e., fetal bovine serum (FBS), newborn bovine serum (NBS), and human serum). FBS is taken during the development of a calf fetus, so the serum has less protein associated with the innate immune system, and less protein altogether compared to NBS and human serum. […] The structural optimization of compound 12a improved the serum stability of the drug: P3 was changed from isopropyl to CH2OBn, and P4 was changed from OBn to NHBn. The OBn group of P4 was more sensitive to deactivation than NHBn.
The MCF-7 cells were cultured in three different types of serum. Assays were performed in biological triplicate, and the data points are reported with the corresponding standard deviation.

C=CCOC(=O)[C@@H](NC(=O)[C@@H](NC(=O)[C@@H]1OC(=O)[C@H]1[C@@H](C)CC)C(C)C)C(C)C [Compound 11a, Allyl((2R,3S)-3-((S)-sec-butyl)-4-oxooxetane-2-carbonyl)-L-valyl-L-valinate]
binding mode in the crystal structure [1]: binds covalently to Thr1Oγ at the active site of subunit β5 of the yCP
IC50 [2]: 0.779 ± 0.042 µM
IC50 (RPMI 8226 cells; read-out: Cytotoxicity RPMI 8226 IC50, Table 4, MTT, 48 h): 94 ± 15 nM
IC50 [3]: 41.2 ± 15.2 nM
IC50 (MDA-MB-231 cells; read-out: Cytotoxicity MDA-MB-231 IC50, Table 4, MTT, 48 h): 275 ± 112 nM
IC50 [4]: 19.5 ± 0.8 nM
IC50 [5]: > 10 µM
IC50 ([6]; Table 4, P4 analogues, read-out: Proteasome Inhibition ChT-like IC50): 11.6 ± 2.8 nM
IC50 (MCF7 cells; read-out: Cytotoxicity MCF7 IC50, Table 4, MTT, 48 h): 311 ± 82 nM

CC[C@H](C)[C@@H]1C(=O)O[C@H]1C(=O)N[C@H](C(=O)N[C@@H](COCc1ccccc1)C(=O)NCc1ccccc1)C(C)C [Compound 12a]
IC50 [2]: 20.4 ± 12.9 µM
IC50 (RPMI 8226 cells; Homo sapiens, RPMI-8226, read-out: Cytotoxicity RPMI 8226 IC50): 28.8 ± 1.09 nM
times less cytotoxic than carfilzomib [7]: about 10 times
fold decrease in activity with NBS or human serum instead of FBS [8]: < 10 fold
IC50 [3]: 33 ± 13.4 nM
IC50 (MDA-MB-231 cells; Homo sapiens, MDA-MB-231, read-out: Cytotoxicity MDA-MB-231 IC50): 56.3 ± 3.09 nM
IC50 [4]: 8.2 ± 1.4 nM
IC50 [5]: 13.6 ± 5.49 µM
IC50 ([6]; Table 5, read-out: Proteasome Inhib. ChT-L IC50): 0.647 ± 0.021 nM
IC50 (MCF7 cells; Homo sapiens, MCF7, read-out: Cytotoxicity MCF7 IC50): 93.9 ± 2.94 nM
